According to patent US8592161B2, “Mutational profiles in HIV-1 protease correlated with phenotypic drug resistance” (Janssen R&D Ireland, priority 2002, dated 2013):

test system: HIV-1/LAI strain selected with Comp 1 (200 nM, 328 days), protease S37N R41S K70E; assay: In vitro antiviral activity in acutely infected MT4 cells, selected strain; format: cell-based; conditions: Human immunodeficiency virus 1, Table 2, strain S37N R41S K70E (Comp 1 200 nM, 328 days), read-out: median EC50
Description: (§1) Determination of the antiviral activity of a compound was done as described in Pauwels R. et al. (J Virol Methods 1988; 20(4):309-21). Various concentrations of the test compounds were brought into each well of a flat-bottom microtiter plate. Subsequently, HIV and MT4 cells were added to a final concentration of 200-250 50% cell culture infectious doses (CCID50)/well and 30,000 cells/well, respectively. After 5 days of incubation (37° C., 5% CO2), the cytopathic effect of the replicating virus was determined by the tetrazolium colorimetric MTT method. The dose protecting 50% of the cells from virus cytopathic effect was defined as the EC50, while the dose achieving 90% protection was defined as the EC90.
(§2) MT4-LTR-EGFP cells were infected at a multiplicity of infection (MOI) of 0.01 to 0.001 CCID50/cell in the presence of inhibitor. The starting concentration of the inhibitor was two to tee times the EC50, a suboptimal concentration. The cultures were sub-cultivated and scored microscopically on virus-induced fluorescence and cytopathicity every 3-4 days. The cultures were sub-cultivated in the presence of the same compound concentration until signs of virus replication were observed. The escaping virus was further cultivated in the presence of the same inhibitor concentration in order to enrich the population in resistant variants. If full virus breakthrough was observed the supernatant was collected and stored (new virus strain). Afterwards, the same virus was challenged with a higher compound concentration in order to select variants able to grow in the presence of as high as possible inhibitor concentrations. From the new viruses, a virus stock was grown in the absence of inhibitor.
(§3) In vitro drug selection experiments starting from wild-type HIV-1 under pressure of compound 1, compound 2, and Nelfinavir (NFV) have been performed. Tables 1, 2, 3, 4, and 5 show the genotypic and phenotypic characterization of the selected strains.

Structure (SMILES) | EC50
CC(C)(C)NC(=O)[C@@H]1CN(Cc2cccnc2)CCN1C[C@@H](O)C[C@@H](Cc1ccccc1)C(=O)N[C@H]1c2ccccc2C[C@H]1O [Indinavir] | 5.5 nM

same assay, conditions: Table 2, strain S37N R41S K70E (Comp 1 200 nM, 328 days)

Structure (SMILES) | median FC (fold change in EC50 as compared to wild type)
CC(C)(C)NC(=O)[C@@H]1CN(Cc2cccnc2)CCN1C[C@@H](O)C[C@@H](Cc1ccccc1)C(=O)N[C@H]1c2ccccc2C[C@H]1O [Indinavir] | 0.5

test system: HIV-1/LAI strain selected with Comp 1 (30 nM, 70 days), protease K70E; assay: as above; format: cell-based; conditions: Human immunodeficiency virus 1, Table 2, strain K70E (Comp 1 30 nM, 70 days), read-out: median EC50
Description: as §1, §2, §3

Structure (SMILES) | EC50
CC(C)(C)NC(=O)[C@@H]1CN(Cc2cccnc2)CCN1C[C@@H](O)C[C@@H](Cc1ccccc1)C(=O)N[C@H]1c2ccccc2C[C@H]1O [Indinavir] | 18 nM

same assay, conditions: Table 2, strain K70E (Comp 1 30 nM, 70 days)

Structure (SMILES) | median FC (fold change in EC50 as compared to wild type)
CC(C)(C)NC(=O)[C@@H]1CN(Cc2cccnc2)CCN1C[C@@H](O)C[C@@H](Cc1ccccc1)C(=O)N[C@H]1c2ccccc2C[C@H]1O [Indinavir] | 2

test system: HIV-1/LAI strain selected with Compound 1 (100 nM, 188 days), protease R41T K70E; assay: as above; format: cell-based; conditions: Human immunodeficiency virus 1, Table 1, strain R41T K70E (Compound 1 100 nM, 188 days), read-out: median EC50
Description: as §1, §2, §3

Structure (SMILES) | EC50
CC(C)(C)NC(=O)[C@@H]1CN(Cc2cccnc2)CCN1C[C@@H](O)C[C@@H](Cc1ccccc1)C(=O)N[C@H]1c2ccccc2C[C@H]1O [Indinavir] | 140 nM

same assay, conditions: Table 1, strain R41T K70E (Compound 1 100 nM, 188 days)

Structure (SMILES) | median FC (fold change in EC50 as compared to wild type)
CC(C)(C)NC(=O)[C@@H]1CN(Cc2cccnc2)CCN1C[C@@H](O)C[C@@H](Cc1ccccc1)C(=O)N[C@H]1c2ccccc2C[C@H]1O [Indinavir] | 5

test system: HIV-1/LAI strain selected with Compound 1 (30 nM, 45 days), protease R41T; assay: as above; format: cell-based; conditions: Human immunodeficiency virus 1, Table 1, strain R41T (Compound 1 30 nM, 45 days), read-out: median EC50
Description: as §1, §2, §3

Structure (SMILES) | EC50
CC(C)(C)NC(=O)[C@@H]1CN(Cc2cccnc2)CCN1C[C@@H](O)C[C@@H](Cc1ccccc1)C(=O)N[C@H]1c2ccccc2C[C@H]1O [Indinavir] | 33 nM

same assay, conditions: Table 1, strain R41T (Compound 1 30 nM, 45 days)

Structure (SMILES) | median FC (fold change in EC50 as compared to wild type)
CC(C)(C)NC(=O)[C@@H]1CN(Cc2cccnc2)CCN1C[C@@H](O)C[C@@H](Cc1ccccc1)C(=O)N[C@H]1c2ccccc2C[C@H]1O [Indinavir] | 1

test system: HIV-1/LAI strain selected with Compound 2 (100 nM), protease R41I; Table 3; assay: as above; format: cell-based; conditions: Human immunodeficiency virus 1, R41I strain selected with Compound 2 100 nM (head lists 116, 200, 264 days; assignment unclear), read-out: median EC50
Description: as §1, §2, §3

Structure (SMILES) | EC50
CC(C)(C)NC(=O)[C@@H]1CN(Cc2cccnc2)CCN1C[C@@H](O)C[C@@H](Cc1ccccc1)C(=O)N[C@H]1c2ccccc2C[C@H]1O [Indinavir] | 19 nM

test system: HIV-1/LAI strain selected with NFV (1000 nM, 35 days), protease D30N M46I; assay: as above; format: cell-based; conditions: Human immunodeficiency virus 1, Table 5, strain D30N M46I (NFV 1000 nM, 35 days), read-out: median EC50
Description: as §1, §2, §3

Structure (SMILES) | EC50
CC(C)(C)NC(=O)[C@@H]1CN(Cc2cccnc2)CCN1C[C@@H](O)C[C@@H](Cc1ccccc1)C(=O)N[C@H]1c2ccccc2C[C@H]1O [Indinavir] | 7.9 nM

same assay, conditions: Table 5, strain D30N M46I (NFV 1000 nM, 35 days)

Structure (SMILES) | median FC (fold change in EC50 as compared to wild type)
CC(C)(C)NC(=O)[C@@H]1CN(Cc2cccnc2)CCN1C[C@@H](O)C[C@@H](Cc1ccccc1)C(=O)N[C@H]1c2ccccc2C[C@H]1O [Indinavir] | 1

test system: HIV-1/LAI strain selected with NFV (9000 nM, 11l days), protease L10F D30N R41R/K K45I/K M46I V77I I84V/I I85V/I N88D; assay: as above; format: cell-based; conditions: Human immunodeficiency virus 1, Table 5, strain L10F D30N R41R/K K45I/K M46I V77I I84V/I I85V/I N88D (NFV 9000 nM, 11l days), read-out: median EC50
Description: as §1, §2, §3

Structure (SMILES) | EC50
CC(C)(C)NC(=O)[C@@H]1CN(Cc2cccnc2)CCN1C[C@@H](O)C[C@@H](Cc1ccccc1)C(=O)N[C@H]1c2ccccc2C[C@H]1O [Indinavir] | 100 nM

same assay, conditions: Table 5, strain L10F D30N R41R/K K45I/K M46I V77I I84V/I I85V/I N88D (NFV 9000 nM, 11l days)

Structure (SMILES) | median FC (fold change in EC50 as compared to wild type)
CC(C)(C)NC(=O)[C@@H]1CN(Cc2cccnc2)CCN1C[C@@H](O)C[C@@H](Cc1ccccc1)C(=O)N[C@H]1c2ccccc2C[C@H]1O [Indinavir] | 8

test system: HIV-1/LAI strain selected with NFV (9000 nM, 140 days), protease L10F D30N R41R/K K45I/K M46I V77I I84V N88D; assay: as above; format: cell-based; conditions: Human immunodeficiency virus 1, Table 5, strain L10F D30N R41R/K K45I/K M46I V77I I84V N88D (NFV 9000 nM, 140 days), read-out: median EC50
Description: as §1, §2, §3

Structure (SMILES) | EC50
CC(C)(C)NC(=O)[C@@H]1CN(Cc2cccnc2)CCN1C[C@@H](O)C[C@@H](Cc1ccccc1)C(=O)N[C@H]1c2ccccc2C[C@H]1O [Indinavir] | 28 nM

same assay, conditions: Table 5, strain L10F D30N R41R/K K45I/K M46I V77I I84V N88D (NFV 9000 nM, 140 days)

Structure (SMILES) | median FC (fold change in EC50 as compared to wild type)
CC(C)(C)NC(=O)[C@@H]1CN(Cc2cccnc2)CCN1C[C@@H](O)C[C@@H](Cc1ccccc1)C(=O)N[C@H]1c2ccccc2C[C@H]1O [Indinavir] | 2
